Data from publication PMC4760274, “Elongation factor 2 kinase promotes cell survival by inhibiting protein synthesis without inducing autophagy” (Cellular Signalling, 2016).
Peptide text beside a SMILES is read from it. * marks the point of attachment. Cbz = O=C(OCc1ccccc1)*

Experiments:
P-eEF2 in WT MEFs = assay: eEF2 phosphorylation in wild-type MEFs (western blot); format: cell-based, mouse; details: MK2206 5 μM or 2DG 10 mM, 24 h, Fig. 3A
Description: After treatment, cells were lysed in ice-cold lysis buffer containing 1% (v/v) Triton X-100 (215680010, Acros Organics), 50 mM Tris (T6066-1KG, Sigma-Aldrich)–HCl (258148-2.5 L, Sigma-Aldrich) pH 7.4, 50 mM NaCl (BP358-212, Fisher Scientific), 0.2 mM EDTA (BP120-500, Fisher Scientific), 0.2 mM EGTA (E1102, Melford), 50 mM β-glycerophosphate (G9422, Sigma-Aldrich), 1 mM Na3VO4 (S6508, Sigma-Aldrich), 15 mM β-mercaptoethanol (125472500, Acros Organics) and 1 × protease inhibitor cocktail (5056489001, Roche). Lysates were spun at 16,000 × g for 10 min at 4 °C; the supernatants were kept and total protein concentration was quantified by Bradford assay following the manufacturer's instructions. […]
Fig. 3 Role of eEF2K in autophagy in mouse embryonic fibroblasts (MEFs). […] Cells were then lysed and samples containing equal amounts of protein were analysed by western blot using the indicated antibodies. (B) Quantitation of data from multiple experiments as in (A) expressed as LC3II normalized to actin, mean ± SEM (control cells without treatment = 1; n = 3). […] Cells were then lysed and samples containing equal amounts of protein were analysed by western blot using the indicated antibodies. (D) Quantitation of data from multiple experiments as in (C) expressed as LC3II normalized to actin, mean ± SEM (control cells without treatment = 1; n = 3).

LC3II in MEFs = assay: LC3 modification in MEFs (western blot); format: cell-based, mouse; details: 24 h; for ratio of the two forms of LC3: WT MEFs, MK2206 5 μM or 2DG 10 mM, Fig. 3A
Description: (§1) After treatment, cells were lysed in ice-cold lysis buffer containing 1% (v/v) Triton X-100 (215680010, Acros Organics), 50 mM Tris (T6066-1KG, Sigma-Aldrich)–HCl (258148-2.5 L, Sigma-Aldrich) pH 7.4, 50 mM NaCl (BP358-212, Fisher Scientific), 0.2 mM EDTA (BP120-500, Fisher Scientific), 0.2 mM EGTA (E1102, Melford), 50 mM β-glycerophosphate (G9422, Sigma-Aldrich), 1 mM Na3VO4 (S6508, Sigma-Aldrich), 15 mM β-mercaptoethanol (125472500, Acros Organics) and 1 × protease inhibitor cocktail (5056489001, Roche). Lysates were spun at 16,000 × g for 10 min at 4 °C; the supernatants were kept and total protein concentration was quantified by Bradford assay following the manufacturer's instructions.
(§2) These procedures were performed as described previously.
Fig. 3 Role of eEF2K in autophagy in mouse embryonic fibroblasts (MEFs). Wildtype (WT) and eEF2K^−/− (KO) MEFs were treated, where indicated, with MK2206 (MK) (5 μM) or 10 mM 2-deoxyglucose (2DG) or in medium lacking glucose (− Glc) for 24 h. Cells were then lysed and samples containing equal amounts of protein were analysed by western blot using the indicated antibodies. (B) Quantitation of data from multiple experiments as in (A) expressed as LC3II normalized to actin, mean ± SEM (control cells without treatment = 1; n = 3). (C) Wild-type (WT) and eEF2K^−/− (KO) MEFs were treated, where indicated, with rapamycin (50 nM) or AZD8055 (0.5 μM) and/or chloroquine (10 μM) for 24 h. Cells were then lysed and samples containing equal amounts of protein were analysed by western blot using the indicated antibodies. (D) Quantitation of data from multiple experiments as in (C) expressed as LC3II normalized to actin, mean ± SEM (control cells without treatment = 1; n = 3).

P-eEF2 in A549 cells = assay: eEF2 phosphorylation in A549 cells (western blot); format: cell-based, human; details: for phosphorylation of eEF2: 16 h, 2DG 10 mM, rapamycin 100 nM, AZD8055 1 μM, MG132 10 μM, Fig. 2A
Description: as §1, §2
Cells were then treated with 10 mM 2-deoxyglucose (2DG), rapamycin (100 nM), AZD8055 (1 μM) or MG132 (10 μM) for 16 h. Cells were then lysed and samples containing equal amounts of protein were analysed by western blot using the indicated antibodies. Values given below each lane show quantitation of the signal for LC3II, corrected for the actin signal from multiple experiments as in (A) expressed as LC3II normalized to actin, mean ± SEM (control cells without treatment = 1; n = 3). (B) A549 cells were cultured as in (A) to induce eEF2K knockdown. A549 cells were transiently transfected with the GST-BHMT construct and maintained in full media in the presence or absence of AZD8055 (1 μM) for 16 h, in the presence of leupeptin and E64d. GST-BHMT was precipitated with glutathione agarose from the whole cell extracts (bottom panel). Values given below show the quantitation of data from multiple experiments as in (B) expressed as the level of BHMT fragment normalized to the control without IPTG, mean ± SEM (control cells without treatment = 1; n = 3). Values given below each lane show quantitation of the signal for P-eEF2, corrected for the eEF2 signal from multiple experiments as in (B) expressed as P-eEF2 normalized to eEF2, mean ± SEM (control cells without treatment = 1; n = 3). (C) Cells were treated as described in Supplemental Fig. S3, visualized by confocal microscopy and the rate of autophagosome–lysosome fusion was measured according to green/red fluorescence ratio which reflect the percentage of unfused LC3. Scale bar = 20 μm. (D) Data quantification of C, data are presented as means ± SEM. (n = 5) ***P < 0.001, obtained by two-way ANOVA (Dunnett's test). (E) Untransfected A549 cells were treated with AZD8055 and BafA1 as described in A, cell lysates were collected at T0, 1 and 3 h for immunoblotting analysis. Values given below each lane show quantitation of the signal for LC3II, corrected for the LC3I signal from multiple experiments as in (E) expressed as LC3II normalized to LC3I, mean ± SEM (control cells without treatment = 1; n = 3).

HCT116 cells = assay: cell death markers in HCT116 cells (PARP cleavage, caspase 3/7 activity); format: cell-based, human; details: CHX 5 μg/mL or Harringtonine 2 μg/mL, Fig. 1B, C
Description: (§3) Caspase 3/7 assays (G8090, Promega) were performed according to the manufacturer's instructions. Briefly, 10,000 cells/well were plated overnight in a 96-well plate. Cells were treated as described in the figure legends for the indicated time period. To measure caspase 3/7 activity, 50 μL of caspase Glo 3/7 reagent was added to each well for 2 h with constant shaking at room temperature. Luminescence was measured using a BMG Labtech FLUOstar Optimi plate reader. Cytotoxicity was evaluated by CellTox Green® cytotoxicity assay (Promega). Briefly, 10,000 cells/well were plated overnight in a 96-well plate. Cells were treated as described in the figure legends for the indicated time period. Fluorescence was measured at 485–500 nmEx/520–530 nmEm using a BMG Labtech FLUOstar Optimi plate reader.
(§4) Fig. 1 eEF2K helps cells withstand glucose starvation. […] Cells were then lysed and samples containing equal amounts of protein were analysed by western blot using the indicated antibodies. Values given below each lane show quantitation of the signal for P-eEF2, corrected for the eEF2 signal from multiple experiments as in (A) expressed as P-eEF2 normalized to eEF2, mean ± SEM (control cells without treatment = 1; n = 3). […] Cells were lysed and caspase 3/7 activity was determined. […] Cell death was measured using CellTox Green® assay. […]

P-eEF2 in HCT116 cells = assay: eEF2 phosphorylation in HCT116 cells (western blot); format: cell-based, human; details: 24 h, CHX 5 μg/mL or Harringtonine 2 μg/mL, Fig. 1C
Description: as §1, §2, §4

A549 cells = assay: cell death of A549 cells (CellTox Green assay); format: cell-based, human; details: CHX 5 μg/mL
Description: as §3, §4

[1] = test system: eEF2K levels in A549 cells; assay: eEF2K protein levels in A549 cells (western blot); format: cell-based, human; details: CHX 5 μg/mL, 24 h, Fig. 1E
Description: as §1, §2, §4

[2] = test system: mTORC1 signalling in HCT116 cells; assay: mTORC1 signalling in HCT116 cells (western blot); format: cell-based, human; details: 24 h, Harringtonine 2 μg/mL, Fig. 1C
Description: as §1, §2, §4

[3] = test system: GST-BHMT cleavage (autophagic flux) in A549 cells; assay: GST-BHMT cleavage assay in A549 cells; format: cell-based, human; details: chloroquine, data not shown
LC3II in A549 cells = assay: LC3 modification in A549 cells (western blot); format: cell-based, human; details: A549 with or without eEF2K knockdown; chloroquine 10 μM; 16 h; Fig. S1
Description: as §1, §2
Cells were then treated with 10 mM 2-deoxyglucose (2DG), rapamycin (100 nM), AZD8055 (1 μM) or MG132 (10 μM) for 16 h. Cells were then lysed and samples containing equal amounts of protein were analysed by western blot using the indicated antibodies. Values given below each lane show quantitation of the signal for LC3II, corrected for the actin signal from multiple experiments as in (A) expressed as LC3II normalized to actin, mean ± SEM (control cells without treatment = 1; n = 3). (B) A549 cells were cultured as in (A) to induce eEF2K knockdown. […] (D) Data quantification of C, data are presented as means ± SEM. […]

SMILES	level of phosphorylation of eEF2 (P-eEF2 in WT MEFs)	ratio of the two forms of LC3 (LC3II in MEFs)	phosphorylation of eEF2 (P-eEF2 in A549 cells)	cell survival in cells starved of glucose and treated with eEF2K inhibitor JAN-849 (HCT116 cells)	effect on eEF2 phosphorylation (p-eEF2) (P-eEF2 in HCT116 cells)	further results
O=CC[C@@H](O)[C@H](O)[C@H](O)CO [2-DG, 2-deoxyglucose]	increased the level of phosphorylation of eEF2	shift in the ratio of the two forms of LC3 from the upper (LC3I) to the lower band	induced the phosphorylation of eEF2	–	–	–
C[C@@H]1C[C@@H]([C@H](O)CC2CC(=O)NC(=O)C2)C(=O)[C@@H](C)C1 [CHX, cycloheximide]	–	–	–	restored cell survival	modest decrease	eEF2 phosphorylation (P-eEF2 in A549 cells; CHX 5 μg/mL, 24 h, Fig. 1E): decrease in eEF2 phosphorylation; effect on cell survival under control conditions (A549 cells; A549): adverse effect; death induced by glucose starvation (A549 cells; A549 with eEF2K knockdown, 48 h, Fig. 1D): partially rescued; levels of eEF2K [1]: decreased the levels of eEF2K
COC(=O)C[C@](O)(CCC(C)(C)O)C(=O)O[C@@H]1C(OC)=C[C@]23CCCN2CCc2cc4c(cc2[C@H]13)OCO4 [Harringtonine]	–	–	–	restored cell survival	no effect	effect on mTORC1 signalling [2]: very little
CC(C)C[C@@H](C=O)NC(=O)[C@H](CC(C)C)NC(=O)[C@H](CC(C)C)NC(=O)OCc1ccccc1 [MG132] (Cbz-Leu-Leu-Leu-aldehyde)	–	–	induced the phosphorylation of eEF2	–	–	–
NC1(c2ccc(-c3nc4ccn5c(=O)[nH]nc5c4cc3-c3ccccc3)cc2)CCC1 [MK2206]	increased the level of phosphorylation of eEF2	shift in the ratio of the two forms of LC3 from the upper (LC3I) to the lower band	–	–	–	–
CCN(CC)CCCC(C)Nc1ccnc2cc(Cl)ccc12 (stereo not drawn) [chloroquine]	–	–	–	–	–	cleavage of GST-BHMT [3]: completely blocked; levels of modified LC3-II (LC3II in MEFs; MEFs treated with rapamycin (50 nM) or AZD8055 (0.5 μM), chloroquine 10 μM, Fig. 3C): increased the levels of modified LC3-II; modified LC3 (LC3II in A549 cells): increased modified LC3
